The results in this text go back to PMC5720837, “Identification of a 4-fluorobenzyl L-valinate amide benzoxaborole (AN11736) as a potential development candidate for the treatment of Animal African Trypanosomiasis (AAT)” (Bioorganic & Medicinal Chemistry Letters, 2018).

Bounds are passed on as bounds.

For data set [1], the system named is Trypanosoma vivax (T. vivax STIB719/ILRAD 560 strain), bloodstream form. Nature of the data set: Whole cell Alamar Blue assay, T. vivax (48 h ex vivo). To be noted: Trypanosoma vivax; T. vivax STIB719/ILRAD 560, 48 h ex vivo Alamar Blue assay. It counts as cell-based. The procedure:
(§1) Activity of compounds 1–71 against T. congolense and T. vivax was determined using the whole cell assays as described ^6 and their IC50 values are summarized in Table 1.
(§2) [6] Assay methods for determination of T. c. and T. v. […] Culture media consisted of complete HMI-9 (IMDM) with 20% bovine serum. To ensure log growth phase, trypanosomes were sub-cultured at appropriate dilutions every 2–3 days. Bloodstream form Trypanosoma vivax (T. vivax) cannot be cultured axenically, therefore trypanosomes (T. vivax STIB719/ILRAD 560 strain) were harvested from a highly parasitemia mouse via cardiac puncture and used directly in the ex vivo drug sensitivity assay on the same day. […] Parasite starting concentrations of 2 × 10^5 (T. c.) and 4 × 10^5 (T. v.) were calculated respectively, using a cell analyzer system or haemo-cytometer, followed by quantification at 536 nm excitation and 588 nm emission wavelengths using a […] reader. Test compounds were prepared as 10 mg/mL DMSO stocks for each assay run. Compounds were assayed in at least three separate, independent test runs and an 11-point dilution curve was used to determine the IC50 values. Data points were averaged to generate sigmoidal dose-response curves and IC50 values were determined using Softmax Pro 5.2 software.
(In general: Alamar Blue is a resazurin reagent that responds to reducing activity.)

In data set [2] the test system is Trypanosoma congolense (T. congolense IL-3000 strain), bloodstream form. Nature of the data set: Whole cell Alamar Blue assay, T. congolense (72 h in vitro). It counts as cell-based. To be noted: T. congolense IL-3000, 72 h in vitro Alamar Blue assay. The procedure:
as §1, §2

Data set [3] can be described thus: In vitro metabolic stability, mouse S9. It counts as in vitro ADME. To be noted: S9 fraction. The procedure:
(§3) Selected compounds were screened in both mouse and bovine in vitro metabolic stability assays (mouse S9 and bovine S9), as summarized in Table 2. These two species were chosen because the primary in vivo assays were conducted in mice, and the target animal of this research program is cattle. […] We evaluated the efficacy of selected compounds in two in vivo mouse models of infection, against T. congolense and T. vivax, respectively. Mice were infected with either 1 × 10^5 T. c. parasites or 1 × 10^4 T. v. parasites, and then treated with a test compound via intraperitoneal administration for 1, 2 or 4 consecutive days. The mice were then monitored for the presence of parasitemia for up to 60 days post treatment.[7] We tested in T. c. model first, then followed up with T. v. for interesting compounds. […] We selected compound 5 (AN11736) to progress to exploratory studies to determine the efficacy and safety in a preliminary formulation against induced infections of T. vivax and T. congolense in cattle.[8]

Data set [4] concerns T. c. parasites (STIB736/IL1180 strain). As to the kind of experiment: In vivo mouse model of T. congolense infection. Particulars: 1 × 10 mg/kg, intraperitoneal, monitored 60 days post treatment. More on the design: species or system NMRI female mice. The procedure: as §3
[7] Methods for testing compound efficacy in mouse models: In vivo mouse efficacy studies were performed at the Swiss TPH, using established mouse models of infection for T. c. and T. v. NMRI female mice were independently infected either with 1 × 10^5T. c. parasites/mouse (STIB736/IL1180 strain) or 1 × 10^4T. v. parasites/mouse (STIB719/ILRAD560 strain) using an intraperitoneal route. Parasitemia was allowed to develop over 7 days (T. c.) or 3 days (T. v.), respectively, before treatment was administered. Compounds were administered via intraperitoneal injection in 10% DMSO/water. Four mice were used per treatment group. Mice were monitored for the presence of trypanosomes, via tail blood examination microscopically with twice-per-week parasitemia checks for 60 days post treatment. Parasitemia was graded on a scale of 0–3, with 0 indicating no trypanosomes seen in 20 fields of view, 1 indicating the presence of 1–5 trypanosomes per field, 2 indicating the presence of 6–20 trypanosomes per field and 3 indicating greater than 20 trypanosomes per field. Mice scoring 2 or 3 were immediately euthanized. After 60 days, aparasitemic mice were considered cured. Untreated control mice survive on average for 10 and 6 days post infection for T. c. and T. v., respectively. All in vivo mouse experiments were conducted in accordance with the strict guidelines set out by the Swiss Federal Veterinary Office, under the ethical approval of license number #2813.

Data set [5] in a line: In vitro metabolic stability, bovine S9. Particulars: S9 fraction. The class given is in vitro ADME. The procedure: as §3

For the compound `CC(C)[C@H](NC(=O)c1ccc2c(c1)B(O)OC2(C)C)C(=O)OCc1ccccc1` [Compound 3], the IC50 in data set [1] turned out to be 9190 nM; in data set [2] (Trypanosoma congolense, 72 h) it was 2580 nM.
Turning to `Cc1c(C(=O)N[C@H](C(=O)OCc2ccc(S(C)(=O)=O)cc2)C(C)C)ccc2c1B(O)OC2` [Compound 19], the IC50 in data set [1] worked out at 0.44 nM; in data set [2] (Trypanosoma congolense, 72 h), 0.61 nM. Further, the results for the microsomal CLint in data set [3] and in data set [5] were 2.6 µL/min/mg and 1.3 µL/min/mg, respectively. Besides, the “Efficacy in mouse model T. c., n/m (mice survived / total mice in group)” value (“Efficacy … (mice survived / total mice in group)” below) in data set [4] is recorded as 0/4 (1 × 10).
The like results for `CC(C)[C@H](NC(=O)c1ccc2c(c1C(F)F)B(O)OC2)C(=O)OCc1ccc(F)cc1` [Compound 22] were, in that order, 0.92 nM, 0.67 nM, 1.4 µL/min/mg, 0.9 µL/min/mg and 0/4 (1 × 10).
Regarding `Cc1c(C(=O)N[C@H](C(=O)OCc2cccc(C(F)(F)F)c2)C(C)C)ccc2c1B(O)OC2` [Compound 10], the IC50 in data set [1] worked out at 2.7 nM; in data set [2] (Trypanosoma congolense, 72 h), 0.22 nM.
In the case of `Cc1c(C(=O)N[C@H](C(=O)OCC2CCCC2)C(C)C)ccc2c1B(O)OC2` [Compound 61], the IC50 in data set [1] is 0.21 nM; in data set [2] (Trypanosoma congolense, 72 h), 0.36 nM.
Turning to `Cc1c(C(=O)N[C@H](C(=O)OCc2cccc(F)c2)C(C)C)ccc2c1B(O)OC2` [Compound 7], the IC50 worked out at 0.1 nM in data set [1] and 0.59 nM in data set [2] (Trypanosoma congolense, 72 h).
`Cc1c(C(=O)N[C@H](C(=O)OCc2cccc(C#N)c2)C(C)C)ccc2c1B(O)OC2` [Compound 14]: the IC50 in data set [1] was determined as 0.06 nM; in data set [2] (Trypanosoma congolense, 72 h), 0.1 nM. Further, the microsomal CLint in data set [3] stood at 9.1 µL/min/mg; in data set [5], 2.7 µL/min/mg. In addition, in data set [4], the “Efficacy … (mice survived / total mice in group)” value is given as 0/4 (1 × 10).
Turning to `Cc1c(C(=O)N[C@H](C(=O)OC2CCCCC2)C(C)C)ccc2c1B(O)OC2` [Compound 60], the IC50 in data set [1] was 0.78 nM; in data set [2] (Trypanosoma congolense, 72 h) it was under 0.005 nM.
On to `Cc1c(C(=O)N[C@H](C(=O)OC(C)C)C(C)C)ccc2c1B(O)OC2` [Compound 56], for which the IC50 was 14 nM in data set [1] and 5.2 nM in data set [2] (Trypanosoma congolense, 72 h).
The like results for `Cc1c(C(=O)N[C@H](C(=O)OCCc2ccc(F)cc2)C(C)C)ccc2c1B(O)OC2` [Compound 67] were, in that order, 0.79 nM and 0.43 nM.
In the case of `Cc1c(C(=O)N[C@H](C(=O)OCc2ccc3ccccc3n2)C(C)C)ccc2c1B(O)OC2` [Compound 45], the IC50 was 0.33 nM in data set [1] and 0.37 nM in data set [2] (Trypanosoma congolense, 72 h).
Turning to `Cc1c(C(=O)N[C@H](C(=O)OCc2ccc(F)cn2)C(C)C)ccc2c1B(O)OC2` [Compound 35], the half-inhibitory concentration (IC50) turned out to be 0.09 nM in data set [1] and 0.15 nM in data set [2] (Trypanosoma congolense, 72 h). Moreover, the microsomal CLint in data set [3] is 5.2 µL/min/mg; in data set [5], 7.8 µL/min/mg. Moreover, the “Efficacy … (mice survived / total mice in group)” value in data set [4] is 0/4 (1 × 10).
Turning to `CCCc1c(C(=O)N[C@H](C(=O)OCc2ccc(F)cc2)C(C)C)ccc2c1B(O)OC2` [Compound 25], the IC50 in data set [1] turned out to be 4.7 nM; in data set [2] (Trypanosoma congolense, 72 h), 3 nM.
For `Cc1c(C(=O)N[C@H](C(=O)OCC2CCN(C)CC2)C(C)C)ccc2c1B(O)OC2` [Compound 66], the IC50 was found to be 4.1 nM in data set [1] and 5.9 nM in data set [2] (Trypanosoma congolense, 72 h).
Turning to `Cc1c(C(=O)N[C@H](C(=O)OCc2c[nH]cn2)C(C)C)ccc2c1B(O)OC2` [Compound 44], the IC50 turned out to be 980 nM in data set [1] and 5000 nM in data set [2] (Trypanosoma congolense, 72 h).
Consider `CC(C)[C@H](NC(=O)c1ccc2c(c1C1CC1)B(O)OC2)C(=O)OCc1ccc(F)cc1` [Compound 27], for which the IC50 in data set [1] stood at 0.71 nM; in data set [2] (Trypanosoma congolense, 72 h), 3.9 nM.
For the compound `C[C@H](NC(=O)c1ccc2c(c1)B(O)OC2)C(=O)OCc1ccccc1` [Compound 1], the IC50 in data set [1] was found to be 69 nM; in data set [2], 4.9 nM; in data set [2] (Trypanosoma congolense, 72 h) it was 5 nM.
As to `CC(C)[C@H](NC(=O)c1ccc2c(c1C(F)(F)F)B(O)OC2)C(=O)OCc1ccc(F)cc1` [Compound 23], the IC50 amounted to 51 nM in data set [1] and 37 nM in data set [2] (Trypanosoma congolense, 72 h).
For the compound `Cc1c(C(=O)N[C@H](C(=O)OC2CCCC2)C(C)C)ccc2c1B(O)OC2` [Compound 59], the IC50 was found to be 0.52 nM in data set [1] and 0.7 nM in data set [2] (Trypanosoma congolense, 72 h).
Consider `Cc1c(C(=O)N[C@H](C(=O)OCc2ccc(C#N)cc2)C(C)C)ccc2c1B(O)OC2` [Compound 15], for which the IC50 in data set [1] was 0.05 nM; in data set [2] (Trypanosoma congolense, 72 h), 0.15 nM.
Turning to `Cc1c(C(=O)N[C@H](C(=O)OCCN2CCCC2)C(C)C)ccc2c1B(O)OC2` [Compound 65], the IC50 is 1.2 nM in data set [1] and 9.4 nM in data set [2] (Trypanosoma congolense, 72 h).
Take `Cc1c(C(=O)N[C@H](C(=O)OCC(C)C)C(C)C)ccc2c1B(O)OC2` [Compound 57]: the IC50 amounted to 0.26 nM in data set [1] and 0.46 nM in data set [2] (Trypanosoma congolense, 72 h).
For the compound `Cc1c(C(=O)N[C@H](C(=O)OCc2nccs2)C(C)C)ccc2c1B(O)OC2` [Compound 42], the IC50 was determined as 0.19 nM in data set [1] and 0.2 nM in data set [2] (Trypanosoma congolense, 72 h).
For `Cc1c(C(=O)N[C@H](C(=O)OC2COC2)C(C)C)ccc2c1B(O)OC2` [Compound 68], in that order: 37 nM and 1.8 nM.
`Cc1c(C(=O)N[C@H](C(=O)OCc2ncc(F)cn2)C(C)C)ccc2c1B(O)OC2` [Compound 40]: the IC50 in data set [1] was determined as 0.5 nM; in data set [2] (Trypanosoma congolense, 72 h), 0.27 nM.
With `Cc1c(C(=O)N[C@H](C(=O)OC2CCC2)C(C)C)ccc2c1B(O)OC2` [Compound 58], the IC50 in data set [1] came out at 0.69 nM; in data set [2] (Trypanosoma congolense, 72 h) it was 0.66 nM.
As to `Cc1c(C(=O)N[C@H](C(=O)OCc2ccncc2)C(C)C)ccc2c1B(O)OC2` [Compound 38], the IC50 was determined as 0.31 nM in data set [1] and 0.68 nM in data set [2] (Trypanosoma congolense, 72 h).
The like results for `Cc1c(C(=O)N[C@H](C(=O)OCc2cccc(OC(F)(F)F)c2)C(C)C)ccc2c1B(O)OC2` [Compound 12] were, in that order, 19 nM and 0.31 nM.
As to `Cc1c(C(=O)N[C@H](C(=O)OCc2cscn2)C(C)C)ccc2c1B(O)OC2` [Compound 43], in data set [2] (Trypanosoma congolense, 72 h), it took 0.062 nM to reach half-maximal inhibition (IC50).
`Cc1c(C(=O)N[C@H](C(=O)OCc2ccccn2)C(C)C)ccc2c1B(O)OC2` [Compound 36]: the 50% inhibitory concentration (IC50) in data set [1] turned out to be 0.14 nM; in data set [2] (Trypanosoma congolense, 72 h), 0.26 nM.
For `Cc1c(C(=O)N[C@H](C(=O)OCc2cc(F)cc(F)c2)C(C)C)ccc2c1B(O)OC2` [Compound 9], in that order: 0.1 nM and 0.18 nM.
`Cc1c(C(=O)NC2(C(=O)OCc3ccc(F)cc3)CCC2)ccc2c1B(O)OC2` [Compound 32]: the IC50 in data set [1] came to 2.5 nM; in data set [2] (Trypanosoma congolense, 72 h), 0.45 nM.
In the case of `Cc1c(C(=O)N[C@H](C(=O)OCCN2CCOCC2)C(C)C)ccc2c1B(O)OC2` [Compound 64], the IC50 in data set [1] was found to be 0.78 nM; in data set [2] (Trypanosoma congolense, 72 h), 2.3 nM.
In the case of `Cc1c(C(=O)N[C@H](C(=O)OCc2ccc(C(F)(F)F)cc2)C(C)C)ccc2c1B(O)OC2` [Compound 11], the IC50 in data set [1] is 24 nM; in data set [2] (Trypanosoma congolense, 72 h), 0.16 nM.
For `Cc1c(C(=O)N[C@H](C(=O)OCc2ccc(F)cc2)C2CC2)ccc2c1B(O)OC2` [Compound 28], in that order: 0.38 nM and 0.12 nM.
For `Cc1c(C(=O)N[C@H](C(=O)OCc2ccc(OC(F)(F)F)cc2)C(C)C)ccc2c1B(O)OC2` [Compound 13], in that order: 0.04 nM and 0.23 nM.
For `Cc1c(C(=O)N[C@H](C(=O)OCc2cccnc2)C(C)C)ccc2c1B(O)OC2` [Compound 37], the IC50 in data set [1] was found to be 0.5 nM; in data set [2] (Trypanosoma congolense, 72 h), 0.78 nM.

One may read the IC50 as the concentration at which inhibition is half-maximal. High values mean weaker potency, low ones greater potency. Broadly, the microsomal CLint is a measure of how fast metabolising enzymes remove a compound, apart from limits set by blood flow. Lower therefore signals slow turnover.
